{
  "source": "patent US7498127B2",
  "about": "“Method of screening cell growth inhibitor and cell growth inhibitor” (priority 2002, dated 2009)",
  "test_system": "nuclear export of the PLZF protein",
  "assay": "Inhibitory effect against the nuclear export of the PLZF protein by processing (CFP-PLZF in nucleus, TPA treatment)",
  "assay_type": "cell-based, Human",
  "details": "HT1080/HB-EGF transfected with CFP-PLZF; 100 nM TPA 60 min in copresence of LMB 10 ng/ml; FIG. 7",
  "protocol": "Each transfectant containing CFP-PLZF was cultured for 24 hours, and then 100 nM TPA was added thereto for treatment for 60 min. The number (N) of the cells expressing CFP-PLZF in the nucleus and the number (C) of the cells in which CFP-PLZF has leaked into the cytoplasm are counted under observation with a fluorescent microscope before and after the TPA treatment, and the ratio of the number (N) of the cells expressing CFP-PLZF in the nucleus to the total number (N+C) of the cells expressing CFP-PLZF is calculated and thus obtained (N/(N+C)×100 (%)). The wild-type HT1080 cells (the above described 1)) were used as the control for comparison.\nHT1080/HB-EGF to which CFP-PLZF had been transfected (see Test Example 3) was cultured for 24 hours, and then treated with 100 nM TPA in the copresence of LMB (10 ng/ml) for 60 min. The number of the cells expressing CFP-PLZF in the nucleus was measured with a microscope before and after the TPA treatment and the ratio was calculated.\nAs the control, the ratio of the number of the cells expressing CFP-PLZF before and after the TPA treatment when the TPA treatment was performed without adding LMB was obtained, and compared with the ratio when LMB was added. Thus, the compound LMB to be tested was evaluated. • 3. Test Results",
  "data": [
    {"smiles": "CCC(=C/[C@H](C)C/C=C/C(C)=C/[C@@H](C)C(=O)[C@@H](C)[C@H](O)[C@@H](C)C/C(C)=C/C(=O)O)/C=C/[C@@H]1OC(=O)C=C[C@@H]1C", "note": "[LMB, reptomycin B]", "values": [
      {"measurement": "inhibition of the nuclear export of the PLZF protein (ratio of cells expressing CFP-PLZF in the nucleus before and after TPA treatment)", "value": "inhibited the nuclear export of the PLZF protein"}
    ]}
  ]
}
